In brackets after ≈: the same amount, converted by molar mass. Where two headings read alike, the source gives them in different places. Bounds are passed on as bounds.

One series concerns MRSA-2. Kind of series: MIC broth microdilution assay. It counts as cell-based, Staphylococcus aureus. Particulars: Staphylococcus aureus, MRSA; Table 1; read-out: MIC MRSA-2. (Broth dilution looks for growth in wells or tubes with falling amounts of substance.)
In a further series the test system is MRSA BAA-44. Kind of series: MIC broth microdilution assay. It counts as cell-based. Conditions: Staphylococcus aureus; Table 1; read-out: MIC MRSA BAA-44.
Series [1] relates to MRSE 35984. Nature of the series: MIC broth microdilution assay. It is filed as cell-based, Staphylococcus epidermidis. Particulars: Staphylococcus epidermidis, MRSE.
Series [2] relates to VRE 700221. Kind of series: MIC broth microdilution assay. It is filed as cell-based, Enterococcus faecium. Conditions: Enterococcus, VRE.
The test system of a further series is S. epi 12228. Nature of the series: MIC broth microdilution assay. It is filed as cell-based, Staphylococcus epidermidis.
For the next series, the system named is MRSA-1. Nature of the series: MIC broth microdilution assay. Particulars: Staphylococcus aureus, MRSA; Table 1; read-out: MIC MRSA-1. It is filed as cell-based, Staphylococcus aureus.
In series [3] the test system is MRSA BAA-1707. Nature of the series: MIC broth microdilution assay. It counts as cell-based, Staphylococcus aureus. Conditions: Staphylococcus aureus.
Series [4] is described as follows: Hemolysis assay with red blood cells. Conditions: human, pH 7.2.
Series [5] is described as follows: LDH release assay for HeLa cytotoxicity. It is filed as cell-based. Conditions: human, HeLa cells; LDH release, 24 hours; tested at 25, 50 and 100 µM; read-out: HeLa Cytotox. IC50. (Release of lactate dehydrogenase indicates damage to the cell membrane.)
Series [6] deals with VRE 700221. Kind of series: Calgary Biofilm Device (CBD) MBC/MBEC assay. Particulars: Enterococcus, VRE; CBD, planktonic killing; read-out: VRE 700221 MBC. It counts as cell-based, Enterococcus faecium.
For series [7], the system named is MRSA BAA-1707. Kind of series: Calgary Biofilm Device (CBD) MBC/MBEC assay. It counts as cell-based, Staphylococcus aureus. Particulars: for MRSA BAA-1707 MBEC: biofilm eradication.
Another series concerns MtB H37Ra. Kind of series: MIC assay for Mycobacterium tuberculosis. Conditions: 168 h, seven days. It is filed as cell-based.
For series [8], the system named is MRSE 35984. Nature of the series: Calgary Biofilm Device (CBD) MBC/MBEC assay. It is filed as cell-based, Staphylococcus epidermidis. Particulars: Staphylococcus epidermidis, MRSE; CBD, planktonic killing; read-out: MRSE 35984 MBC.
[9] abbreviates: Table 1, read-out: MIC MRSE 35984.
Setting [10] is: Table 1, read-out: MIC VRE 700221.
The mark [11] stands for this setting: Staphylococcus epidermidis, 12228, Table 1, read-out: MIC S. epi 12228.
The mark [12] stands for this setting: Table 1, three independent experiments, read-out: MIC MRSA BAA-1707.
[13] abbreviates: single plate shown as picture, read-out: MIC (µM), MIC Assay against MRSA BAA-1707.
[14] abbreviates: Table 3, read-out: MRSA BAA-1707 MIC.
[15] abbreviates: Table 3, read-out: MRSE 35984 MIC.
Where [16] appears, read: Table 3, read-out: VRE 700221 MIC.

In the case of `Cc1cc(Br)c(O)c2nc3cccc(Cl)c3nc12` [HP 11], the MIC (commonly the lowest concentration that inhibits growth of the organism) in the series with MRSA-2 is 3.13 µM (≈ 1.01 µg/mL); in the series on MRSA BAA-44 it was 3.13 µM (≈ 1.01 µg/mL); in the series on MRSE 35984 [1] (setting [9]), 1.56 µM (≈ 0.505 µg/mL); with VRE 700221 [2] (setting [10]) it was 3.13 µM (≈ 1.01 µg/mL); with S. epi 12228 (setting [11]), 1.56 µM (≈ 0.505 µg/mL).
For the molecule `Cc1cc(Br)c(O)c2nc3cc(Cl)ccc3nc12` [HP 12], the MIC was 75 µM (≈ 24.3 µg/mL) in the series on MRSA-1 and 12.5 µM (≈ 4.04 µg/mL) with VRE 700221 [2] (setting [10]).
Regarding `Cc1cc(Br)c(O)c2nc3cccc(Br)c3nc12` [HP 13], the minimal inhibitory concentration (MIC) in the series on MRSA-2 is 2.35 µM (≈ 0.865 µg/mL); in the series on MRSA BAA-1707 [3] (setting [12]), 1.17 µM (≈ 0.431 µg/mL); in the series with MRSA BAA-1707 [3] (setting [13]) it was 0.78 µM (≈ 0.287 µg/mL).
Regarding `Cc1cc(Br)c(O)c2nc3cc(Br)ccc3nc12` [HP 14], the MIC in the series on MRSA BAA-1707 [3] (setting [12]) is 9.38 µM (≈ 3.45 µg/mL); with MRSA-1 it was 75 µM (≈ 27.6 µg/mL); in the series on MRSE 35984 [1] (setting [9]), 75 µM (≈ 27.6 µg/mL).
In the case of `Oc1c(Br)cc(Br)c2nc3ccc(Oc4ccccc4)cc3nc12` [HP 16], the minimal inhibitory concentration (MIC) in the series with MRSA-1 came out at 25 µM (≈ 11.2 µg/mL).
In series [4], `Cc1ccc2nc3c(O)c(Br)cc(Br)c3nc2c1C` [HP 19] showed a hemolysis at 1 h, 200 µM of 5.3%. The MIC in the series on MRSA BAA-1707 [3] (setting [12]) is 0.15 µM (≈ 0.0573 µg/mL); in the series with MRSA BAA-1707 [3] (setting [14]), 0.15 µM (≈ 0.0573 µg/mL); in the series on MRSA BAA-1707 [3] (setting [13]), 0.1 µM (≈ 0.0382 µg/mL); in the series on MRSE 35984 [1] (setting [15]) it was 0.3 µM (≈ 0.115 µg/mL); with MRSE 35984 [1] (single plate shown as picture, read-out: MIC (µM), MIC Assay Against MRSE 35984) it was 0.2 µM (≈ 0.0764 µg/mL); in the series on VRE 700221 [2] (setting [10]), 0.15 to 1.56 µM (≈ 0.0573 to 0.596 µg/mL). Further, the minimum inhibitory concentration (MIC) amounted to 0.15 µM (≈ 0.0573 µg/mL) in the series on VRE 700221 [2] (setting [16]); 0.2 µM (≈ 0.0764 µg/mL) in the series with VRE 700221 [2] (single plate shown as picture, read-out: MIC (µM), MIC Assay Against VRE 700221); 6.25 µM (≈ 2.39 µg/mL) in the series with S. epi 12228 (setting [11]); 6.25 µM (≈ 2.39 µg/mL) with S. epi 12228 (Staphylococcus epidermidis, 12228, single plate shown as picture, read-out: MIC (µM), MIC Assay Against S. epidermidis 12228). Further, in series [5], the IC50 (in general, the concentration needed to halve the response being measured) at 24 h was more than 100 µM.
For the molecule `Cc1ccc2nc3c(Br)cc(Br)c(O)c3nc2c1` [HP 20], the minimum inhibitory concentration (MIC) with MRSA-2 is […]; with MRSA BAA-44, […]; in the series with MRSE 35984 [1] (setting [9]), 6.25 µM (≈ 2.3 µg/mL).
As to `CCCCCCCCCC(=O)N[C@@H](Cc1c[nH]c2ccccc12)C(=O)N[C@H](CC(N)=O)C(=O)N[C@@H](CC(=O)O)C(=O)N[C@@H]1C(=O)NCC(=O)N[C@@H](CCCN)C(=O)N[C@@H](CC(=O)O)C(=O)N[C@H](C)C(=O)N[C@@H](CC(=O)O)C(=O)NCC(=O)N[C@H](CO)C(=O)N[C@@H]([C@H](C)CC(=O)O)C(=O)N[C@@H](CC(=O)c2ccccc2N)C(=O)O[C@@H]1C` [daptomycin, reference compound], the MBC in the series with VRE 700221 [6] turned out to be 375 µM (≈ 608 µg/mL); with MRSA BAA-1707 [7] (Staphylococcus aureus, 24 h, CBD, planktonic killing, 24 hours treatment, read-out: MRSA BAA-1707 MBC), 125 µM (≈ 203 µg/mL). Also, the minimal inhibitory concentration (MIC) in the series with MRSA BAA-44 was 18.8 µM (≈ 30.5 µg/mL); in the series on MRSA BAA-1707 [3] (setting [12]), 3.13 µM (≈ 5.07 µg/mL); in the series on MRSA BAA-1707 [3] (setting [14]) it was 3.13 µM (≈ 5.07 µg/mL); in the series on MRSE 35984 [1] (setting [9]), 12.5 µM (≈ 20.3 µg/mL); in the series on MRSE 35984 [1] (setting [15]), 12.5 µM (≈ 20.3 µg/mL); in the series with VRE 700221 [2] (setting [10]), 125 µM (≈ 203 µg/mL). Besides, the MIC in the series on VRE 700221 [2] (setting [16]) was found to be 125 µM (≈ 203 µg/mL); in the series with S. epi 12228 (setting [11]), 6.25 µM (≈ 10.1 µg/mL). Besides, the “MRSA BAA-1707 MBEC” value in the series with MRSA BAA-1707 [7] (CBD, 24 hours treatment) is more than 2000 µM.
In the case of `CC(=O)NC[C@H]1CN(c2ccc(N3CCOCC3)c(F)c2)C(=O)O1` [linezolid, reference compound], the MIC is 3.13 µM (≈ 1.06 µg/mL) in the series with MRSA-2; 12.5 µM (≈ 4.22 µg/mL) with MRSA BAA-1707 [3] (setting [12]); 12.5 µM (≈ 4.22 µg/mL) with MRSA BAA-1707 [3] (setting [14]); 3.13 µM (≈ 1.06 µg/mL) with MRSE 35984 [1] (setting [9]); 3.13 µM (≈ 1.06 µg/mL) with MRSE 35984 [1] (setting [15]); 3.13 µM (≈ 1.06 µg/mL) with VRE 700221 [2] (setting [10]). Moreover, the MIC in the series with VRE 700221 [2] (setting [16]) was 3.13 µM (≈ 1.06 µg/mL). In the series with MRSA BAA-1707 [7] (CBD, 24 hours treatment), the “MRSA BAA-1707 MBEC” value is more than 2000 µM. Also, the MBC in the series with MRSA BAA-1707 [7] (Staphylococcus aureus, 24 h, read-out: MRSA BAA-1707 MBC) came out at 31.3 µM (≈ 10.6 µg/mL). In the series with MRSA BAA-1707 [7] (Staphylococcus aureus, 24 h, read-out: MRSA BAA-1707 MBEC), the minimal effective concentration is more than 2000 µM.
The molecule `[H]/N=C(/N)N[C@H]1[C@H](O)[C@@H](O)[C@H](O[C@@H]2O[C@@H](C)[C@](O)(C=O)[C@H]2O[C@@H]2O[C@@H](CO)[C@H](O)[C@@H](O)[C@@H]2NC)[C@@H](N/C(N)=N\[H])[C@@H]1O` [streptomycin, reference compound] came in with an MIC against MtB H37Ra of 1.32 µM (≈ 0.768 µg/mL).
`CN[C@H](CC(C)C)C(=O)N[C@H]1C(=O)N[C@@H](CC(N)=O)C(=O)N[C@H]2C(=O)N[C@H]3C(=O)N[C@H](C(=O)N[C@H](C(=O)O)c4cc(O)cc(O)c4-c4cc3ccc4O)[C@H](O)c3ccc(c(Cl)c3)Oc3cc2cc(c3O[C@@H]2O[C@H](CO)[C@@H](O)[C@H](O)[C@H]2O[C@H]2C[C@](C)(N)[C@H](O)[C@H](C)O2)Oc2ccc(cc2Cl)[C@H]1O` [vancomycin, reference compound]: the MBC in the series on MRSE 35984 [8] was 3 µM (≈ 4.35 µg/mL); in the series with VRE 700221 [6], more than 200 µM; in the series with MRSA BAA-1707 [7] (Staphylococcus aureus, Figure 7A, single CBD plate, read-out: MRSA-1707 Planktonic Eradication MBC), 3.9 µM (≈ 5.65 µg/mL); in the series on MRSA BAA-1707 [7] (Staphylococcus aureus, CBD, planktonic killing, 24 hours treatment, read-out: MRSA BAA-1707 MBC) it was 3.9 µM (≈ 5.65 µg/mL). Moreover, the “MRSA-1707 Biofilm Eradication MBEC” value in the series with MRSA BAA-1707 [7] (Figure 7A, single CBD plate) is more than 2000 µM. The MIC was more than 100 µM with VRE 700221 [2] (read-out: MIC VRE 700221); more than 100 µM in the series on VRE 700221 [2] (read-out: VRE 700221 MIC); 1.17 µM (≈ 1.7 µg/mL) with S. epi 12228 (Staphylococcus epidermidis, 12228, read-out: MIC S. epi 12228).

Values taken from PMC5435703 (Scientific Reports, 2017).
